Results published in publication PMC9227096, “Design, Synthesis, and In Vitro, In Silico and In Cellulo Evaluation of New Pyrimidine and Pyridine Amide and Carbamate Derivatives as Multi-Functional Cholinesterase Inhibitors” (Pharmaceuticals, 2022).
Like-named read-outs stand apart in the source and are kept apart here.

Target: T1, equine BChE (eqBChE) (Equus caballus, UniProt P81908)
T1 construct: purchased Sigma-Aldrich (Milan, Italy)
Assay: Reversibility of inhibition vs. eqBChE (ultrafiltration and washing)
Type: biochemical
Settings: for inhibition at 5.4 µM: compound 18 5.4 µM, eqBChE 1.25 U
Description: Moreover, it was evaluated whether the inhibition mechanism of carbamate 18 towards eqBChE is reversible, irreversible or pseudo-irreversible. For this purpose, the percentages of inhibition were determined both after one hour of the incubation of compound 18 (5.4 µM) with eqBChE (1.25 U), both following the removal of the inhibitor and the washing of the enzyme, carried out through ultrafiltration devices for the concentration of biological samples [35, 36]. To validate the method, the same study was performed with carbaryl (54 µM), a known carbamoylating cholinesterase inhibitor.
After the incubation phase, the solution containing the inhibitor not bound to the enzyme was removed by centrifugation, retaining eqBChE on the membrane of the ultrafiltration devices. Then the enzyme was washed with phosphate buffer, to remove the bound inhibitor and to restore the enzyme activity.
Three solutions were prepared in 0.1 M phosphate buffer (pH = 7.4), containing eqBChE (0.50 UmL^−1), DTNB (0.3 mM) and acetylthiocholine (10 mM), respectively. A solution of compound 18 in DMSO (2.7 mM) was prepared. Then six Vivaspin® were used: • three were prepared with 2.5 mL of eqBChE solution (0.50 UmL^−1) and 5 µL of inhibitor solution; • three were prepared with 2.5 mL of eqBChE solution (0.50 UmL^−1) and 5 µL of DMSO.
The Vivaspin® thus prepared were incubated for 1 h at 25 °C. After this time the percentage of inhibition was determined following the Ellman method. The blank was recorded by taking 500 µL from the Vivaspin® and diluting them in the cuvette in 2.5 mL of DTNB solution (0.3 mM). The reaction was activated by adding 30 μL of acetylthiocholine solution (10 mM), so as to obtain a final concentration of 100 µM in the cuvette. The absorbance variation was measured between 0.5 and 1.5 min at 412 nm, repeating the measurement for each of the six Vivaspin®.
After this procedure the first centrifugation of the Vivaspin® was carried out for 60 min at 4000 rpm and subsequently the solutions that crossed the membrane and settled in the filtrate tube were removed. In this way the solutions present in the concentrator body were concentrated up to 100 µL. To these solutions 1 mL of 0.1 M phosphate buffer (pH = 7.4) was added and the second centrifugation was carried out for 30 min at 4000 rpm. The solutions present in the concentrator body were concentrated up to 200 µL. The second washing was carried out, adding 1 mL of buffer and centrifuging for 30 min at 4000 rpm. The solutions present in the concentrator body were concentrated up to 250 µL. A third wash was carried out adding 1 mL of buffer and centrifuging for 50 min at 4000 rpm. The solutions present in the concentrator body were concentrated up to 150 µL. At this point, to recover the concentrated solution, the filtrate tube was removed, the concentrator body was turned upside down and inserted inside the concentrate recovery cap. The Vivaspin® was centrifuged for 10 min at 4000 rpm. After this time the recovered solution was taken up with 3 mL of DTNB solution (0.3 mM) and transferred into the cuvette: blank was recorded. The reaction was activated when 30 µL of substrate solution (10 mM) were added so as to have a final concentration of 100 µM in the cuvette. The absorbance variation between 0.5 and 1.5 min was measured at 412 nm, repeating the measurement for each of the recovered solutions.
As a positive control carbaryl was used, for which the same procedure was followed, using a 27 mM carbaryl stock solution in DMSO.

T1 sequence (P81908 whole entry): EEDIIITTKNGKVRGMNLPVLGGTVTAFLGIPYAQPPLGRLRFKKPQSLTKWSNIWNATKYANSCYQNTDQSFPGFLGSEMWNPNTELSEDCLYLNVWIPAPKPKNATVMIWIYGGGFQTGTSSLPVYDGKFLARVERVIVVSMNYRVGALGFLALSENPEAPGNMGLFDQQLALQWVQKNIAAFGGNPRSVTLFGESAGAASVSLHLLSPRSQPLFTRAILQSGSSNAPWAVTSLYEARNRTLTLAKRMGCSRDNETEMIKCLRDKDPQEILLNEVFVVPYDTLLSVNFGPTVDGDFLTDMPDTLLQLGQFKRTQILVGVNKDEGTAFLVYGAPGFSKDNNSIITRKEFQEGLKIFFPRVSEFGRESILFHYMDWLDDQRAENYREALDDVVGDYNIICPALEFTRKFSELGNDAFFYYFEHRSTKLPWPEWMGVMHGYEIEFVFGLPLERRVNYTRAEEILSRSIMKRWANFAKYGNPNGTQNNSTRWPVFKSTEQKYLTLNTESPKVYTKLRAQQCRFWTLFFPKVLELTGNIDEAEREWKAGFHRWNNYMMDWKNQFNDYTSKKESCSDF

O=C(NCCCCCCNc1ccccn1)Oc1ccccc1 [Compound 18, Phenyl (6-(pyridin-2-ylamino)hexyl)carbamate]
inhibition at 5.4 µM (after ultrafiltration and washing with phosphate buffer, read-out: percentage of inhibition of eqBChE after removal of inhibitor and washing of the enzyme): 56.7%
inhibition at 5.4 µM (before washing, read-out: percentage of inhibition of eqBChE after one hour of incubation): 89.7%
inhibition mechanism towards eqBChE (reversible, irreversible or pseudo-irreversible) (from restoration of enzymatic activity after washing): pseudo-irreversible
